Data from paper PMC10606765, “Study of the Structural Chemistry of the Inclusion Complexation of 4-Phenylbutyrate and Related Compounds with Cyclodextrins in Solution: Differences in Inclusion Mode with Cavity Size Dependency” (International Journal of Molecular Sciences, 2023).
Read-outs that look alike come from different tables or passages of the source. Marks after values point to notes of the source that are not given here.

Legend:
[1] = set-up: method as in PMID 36548517; details: 0.1 M phosphate buffer (pH 2.1), 25 °C, cited from earlier work
[2] = set-up: method as in PMID 36548517; details: phase solubility, 0.1 M phosphate buffer (pH 2.1), 25 °C, mean ± SD (n = 3); cited from earlier work
[3] = set-up: method as in PMID 36548517; details: phase solubility, 0.1 M phosphate buffer (pH 2.1), 25 °C, mean ± SD (n = 3); cited from earlier work; remark: listed apart in the source
[4] = set-up: method as in PMID 36548517; details: proton Y monitored, 0.1 M sodium borate/D2O, 25 °C, total concentration 1.0 × 10^−2 M; cited from earlier work
[5] = Phase solubility study with αCD; type: physicochemical; details: 0.1 M phosphate buffer (pH 2.1), 25 °C; for Apparent stability constant K αCD / Guest/Host Ratio αCD: phase solubility, mean ± SD (n = 3)
Procedure: (§1) Phase solubility studies were conducted according to the method described by Higuchi and Connors. Briefly, 1 mL of CD solutions (0 to 14 mM, pH 2.1) were added to excess amounts of PB or related compounds placed in screw cap tubes. The resulting samples were shaken for 72 h at 25 °C and 120 rpm (Multi Shaker MMS-3020 in a temperature control chamber FMC-1000; Eyela Co., Ltd., Tokyo, Japan). The resulting suspensions were filtered through 0.2 µm membrane filters (Minisart RC 4, Sartorius Stedim Lab Ltd., Stonehouse, UK) and diluted appropriately. The solubility of PB or related compounds was determined by HPLC, and the data were used to construct phase solubility diagrams. The guest/host ratios for the systems showing BS-type solubility diagrams were estimated as the quotient of the amount of undissolved guest at the start of the plateau region and the CD concentration range corresponding to the plateau region.
(§2) HPLC measurements were performed according to a previous report using a JASCO HPLC system (Jasco Corp., Tokyo, Japan). A YMC-PACK ODS AM 303 column (5 µm, 250 mm × 4.6 mm, YMC Co., Kyoto, Japan) was used as the stationary phase and was maintained at 40 °C. […] For PC and PH, the elution program used was 0–7 min (50–100% B), 7–10 min (100% B), and 10–15 min (100–50% B) at a constant flow rate of 1 mL/min.

[6] = Phase solubility study with βCD; type: physicochemical; details: 0.1 M phosphate buffer (pH 2.1), 25 °C, mean ± SD (n = 3)
Procedure: as §1, §2

[7] = Phase solubility study with γCD; type: physicochemical; details: 0.1 M phosphate buffer (pH 2.1), 25 °C, mean ± SD (n = 3)
Procedure: as §1, §2

[8] = 1H NMR continuous variation plot with αCD; type: binding; details: proton Y monitored, 0.1 M sodium borate/D2O, 25 °C, total concentration 1.0 × 10^−2 M
Procedure: ^1H NMR spectra were obtained using a JEOL-A500 spectrometer (Tokyo, Japan) operating at 500 MHz in 5 mm sample tubes at 25 °C using D2O/0.1 M sodium borate (pH meter reading of 9.4) as solvent. The resonance at 4.68 to 4.75 ppm, due to residual solvents (H2O and HOD), was used as an internal reference. Chemical shifts are given as parts per million (ppm), with an accuracy of ±0.001. No external reference was used to avoid possible interactions with the CDs. The ^1H NMR signals of the guests (PB and related compounds) were assigned by 2D ^1H-^1H correlation spectroscopy (COSY), whereas those of the CDs were assigned according to a previous report. The complex stoichiometries were determined by the continuous variation method, where the total concentrations of CD and guest were kept constant at 1.0 × 10^−2 M. In addition, the changes in the chemical shift of CDs and the guest protons in their equimolar systems (5.0 × 10^−3 M) were monitored. […] The stability constant values of the complexes formed by PH were determined from the curves. Two-dimensional ROESY NMR experiments were performed for the CD-PH systems in the phase-sensitive mode using the same spectrometer. Each spectrum consisted of a matrix of F2 by F1 covering a sweep width of 5000 Hz with 36 scans. The spin-lock mixing time was 800 ms, with a relaxation delay of 4 s, and a 90° pulse width of 11.8 µs. The concentration of guest and host were 2.5 × 10^−2 M/1.0 × 10^−1 M (PH/αCD), 1.5 × 10^−2 M/2.5 × 10^−2 M (PH/βCD), and 2.5 × 10^−2 M/2.5 × 10^−2 M (PH/γCD). The stability constants (K1:1) of the PH–CD complexes were estimated by analyzing the first-order dependences of the chemical shift change of PH protons on CD concentration using Equation (2):(2) δobs=δ0+δ1K1:1CDf/1+K1:1CDf where δ0 and δobs are chemical shifts of PH protons without or with CD, respectively, and δ1 is the chemical shift of PH protons in the 1:1 complex.

[9] = 1H NMR molar ratio titration with αCD (stability constant); type: binding
Procedure: (§3) ^1H NMR spectra were obtained using a JEOL-A500 spectrometer (Tokyo, Japan) operating at 500 MHz in 5 mm sample tubes at 25 °C using D2O/0.1 M sodium borate (pH meter reading of 9.4) as solvent. The resonance at 4.68 to 4.75 ppm, due to residual solvents (H2O and HOD), was used as an internal reference. Chemical shifts are given as parts per million (ppm), with an accuracy of ±0.001. No external reference was used to avoid possible interactions with the CDs. The ^1H NMR signals of the guests (PB and related compounds) were assigned by 2D ^1H-^1H correlation spectroscopy (COSY), whereas those of the CDs were assigned according to a previous report. The complex stoichiometries were determined by the continuous variation method, where the total concentrations of CD and guest were kept constant at 1.0 × 10^−2 M. In addition, the changes in the chemical shift of CDs and the guest protons in their equimolar systems (5.0 × 10^−3 M) were monitored. […] The stability constant values of the complexes formed by PH were determined from the curves. […]
(§4) The equation was analyzed by the iteration method since the concentration of free CD ([CD]f) is unknown unless K1:1 had been determined beforehand. […] Therefore, by setting [CD]f = [CD]t as a first approximation, Equation (2) was analyzed by a nonlinear least-squares method, and, in turn, [CD]f values were calculated using the obtained apparent K1:1 value. […]

[10] = 1H NMR molar ratio titration with βCD (stability constant); type: binding
Procedure: as §3, §4

[11] = 1H NMR molar ratio titration with γCD (stability constant); type: binding
Procedure: as §3, §4

[12] = NMR value (pH 9.4) vs phase solubility value (pH 2.1)

Row | Phase solubility diagram type with αCD [5] | Apparent stability constant K αCD [5] | Guest/Host Ratio αCD [5] | Apparent stability constant K βCD [6] | Guest/Host Ratio βCD [6] | Apparent stability constant K γCD [7] | Guest/Host Ratio γCD [7] | Maximum of continuous variation plot, guest/(guest + host) mole fraction, αCD [8] | SMILES | also measured
1 | BS-type | 1185 ± 35 M⁻¹ | 0.55 ± 0.03 | 2283 ± 134 M⁻¹ | 1.08 ± 0.01 | 499 ± 59 M⁻¹ | 2.30 ± 0.03 | 0.35 | O=C(O)CCCCCc1ccccc1 [PC, 6-phenylcaproic acid] | –
2 | BS-type | 2500 ± 50 M⁻¹ | 0.44 ± 0.01 | 7458 ± 52 M⁻¹ | 1.02 ± 0.01 | 1213 ± 18 M⁻¹ | 2.20 ± 0.01 | 0.35 | O=C(O)CCCCCCc1ccccc1 [PH, 7-phenylheptanoic acid] | Reduction of stability constant of αCD complex compared to value at pH 2.1 [9, 12]: 20 fold; Stability constant K1:1 of αCD complex from 1H NMR chemical shift change ([9]; determined from protons A and Y, 0.1 M sodium borate/D2O (pH 9.4), 25 °C): 123 ± 2 M⁻¹; Reduction of stability constant of βCD complex compared to value at pH 2.1 [10, 12]: 3 fold; Stability constant K1:1 of βCD complex from 1H NMR chemical shift change ([10]; determined from protons A and X, 0.1 M sodium borate/D2O (pH 9.4), 25 °C): 2513 ± 469 M⁻¹; Reduction of stability constant of γCD complex compared to value at pH 2.1 [11, 12]: 3 fold; Stability constant K1:1 of γCD complex from 1H NMR chemical shift change ([11]; determined from protons C and X, 0.1 M sodium borate/D2O (pH 9.4), 25 °C): 370 ± 6 M⁻¹

Further lines, the compound ahead of its results:

Row | SMILES | Phase solubility diagram type with αCD [5] | Apparent stability constant K αCD [5] | Guest/Host Ratio αCD [5] | Apparent stability constant K βCD [6] | Guest/Host Ratio βCD [6] | Apparent stability constant K γCD [7] | Guest/Host Ratio γCD [7] | Maximum of continuous variation plot, guest/(guest + host) mole fraction, αCD [8] | also measured
3 | O=C(O)CCCc1ccccc1 [PB, 4-phenylbutyrate] | – | – | – | – | – | – | – | – | Phase solubility diagram type with αCD [1]: AL-type; Apparent stability constant K αCD ([1]; phase solubility, mean ± SD (n = 3)): 481 ± 26 ^a M^−1; Apparent stability constant K βCD [2]: 178 ± 23 ^a M^−1; Guest/Host Ratio βCD [2]: 1.02 ± 0.05 ^b; Apparent stability constant K γCD [3]: 119 ± 9 ^a M^−1; Guest/Host Ratio γCD [3]: 2.14 ± 0.08 ^b; Maximum of continuous variation plot, guest/(guest + host) mole fraction, αCD [4]: 0.5
4 | O=C(O)CCc1ccccc1 [PP, 3-phenylpropionic acid] | AL-type | 226 ± 5 M⁻¹ | – | 74 ± 3 M⁻¹ | – | 34 ± 1 M⁻¹ | – | – | –
5 | O=C(O)CCCCc1ccccc1 [PV, 5-phenylvaleric acid] | AL-type | 639 ± 20 M⁻¹ | – | 838 ± 52 M⁻¹ | 0.99 ± 0.05 | 223 ± 7 M⁻¹ | 2.21 ± 0.03 | 0.35 | –
